In patent publication US20070020194A1, “Nasally administered appetite suppressant” (priority 2005, published 2007):
Several values for one entry are separate records, joined by “and”; a condition that tells them apart may be missing. Equal entries are not always repeated.

Legend:
[1] = applied topically; cited from earlier work
[2] = 70 kg adult; cited from earlier work
[3] = Food intake study, intranasal lidocaine vs saline before a test meal; type: in vivo, human
Description: Three males and one female between 23 and 60 years of age with BMI's less than 25 kg/m2 participated in a study of food intake. The subjects presented to the food intake laboratory at noon after an overnight fast except for water from 9 pm the prior night on two occasions a week apart. They had 10 mg (0.5 cc) of lidocaine or 0.5 cc normal saline administered in each nostril 20 minutes before presentation of a meal consisting of fried chicken pieces and water. They were allowed to eat and drink as much or as little as they wished over a 20-minute period, and there were more chicken pieces than they could reasonably be expected to eat at one sitting. The order of the lidocaine and saline was balanced and the study was performed in a double-blind fashion.
The four subjects consumed 15%, 11%, 27% and 33% less on the lidocaine week compared to the placebo week. […] Sibutramine, an obesity drug, gives an 8% weight loss at 6 months and causes a 12% decrease in food intake.

[4] = cited from earlier work

Row | SMILES | duration of anesthesia [1] [min] | time to peak anesthesia [1] [min] | maximum safe dosage for topical anesthetic [2] [mg] | less food consumed on the lidocaine week compared to the placebo week (individual subjects) ([3]; 10 mg (0.5 cc) lidocaine in each nostril 20 minutes before meal, 20-minute meal of fried chicken pieces, four subjects, BMI less than 25 kg/m2) | overall reduction in food intake ([3]; 10 mg lidocaine per nostril vs saline, four subjects, p<0.02) [%+10.2%] | weight loss that might result if the food intake reduction is sustained ([3]; extrapolated from pilot study by comparison with sibutramine) [%] | weight loss ([4]; at 6 months) [%] | decrease in food intake ([4]; in vivo) [%]
1 | CCN(CC)CC(=O)Nc1c(C)cccc1C [lidocaine] | 30 to 45 | 2 to 5 | 500 | 15% and 11% and 27% and 33% | 21.5 | ≤ 14 |  | 
2 | CC(C)CC(N(C)C)C1(c2ccc(Cl)cc2)CCC1 (centres unmarked) [Sibutramine] |  |  |  |  |  |  | 8 | 12
